# Measurements: US9511196B2, “Systems and methods for promoting wound healing” (priority 2009, dated 2016)
# Where two headings read alike, the source gives them in different places.
# Tests used:
# 2nd degree burn wounds = test: Burn wound model: change in burn wound area after gas treatment; assay type: in vivo, rat; settings: 1000 ppm NO or 250 ppm CO, 15 minutes four times per day; for effect on burn healing compared to untreated burn wound: 10 days
# Method: Similar to the rats used for the type I diabetic model, Rats were anesthetized with the mixture of ketamine 50 mg/kg IM and xylazine 5 mg/kg IM administered intraperitoneally. Anesthesia levels were maintained by additional injections of this mixture as needed. Each rat was allowed to breathe spontaneously. Hair was removed from the rats' backs and the backs of the rat were subsequently wiped with 70% ethanol. The standard rat burn model was used in which burns are produced by hot metal used as a heat source. A customized soldering iron was used to cause superficial dermal second-degree burns on. the backs of the rats. […] It was heated to 80° C. and applied to the skin for 10 seconds, which caused second degree burns. Immediately after wounding, the gasket of an exemplary gas delivery system as disclosed herein was bonded to the skin area surrounding each treated wound by means of a thin layer of Skin-Bond® Cement (Smith & Nephew Inc. Largo, Fla. 33773). The animals were then transferred to individual cages for recovery. Rats received an analgesic (Butorphanol 1-2 mg/kg) injected subcutaneously every four hours for a maximum period of 2 days. To prevent dehydration, 1-2 ml of warm sterile saline/100 g of body weight was injected subcutaneously during the recovery period. The treatment procedures described in more detail below were executed in the same way for the burn wound model as the diabetic wound model. After a certain time period, the rats were again anesthetized using the procedure described above and the wounded skin was taken from the backs of these rats for analysis. Then rats were then euthanized with pentothal (150 mg/kg) injected intraperitoneally.
# (§1) All gas mixtures were prepared and stored in HandyGrab Tedlar gas sampling bag with capacity of 0.6 liter (Zefon International, St. Petersburg, Fla., cat#HG-PP-06) prior to each treatment. Static mixing with nitrogen as a diluting gas was performed. To prepare nitric oxide mixtures in nitrogen, a sample of 1000 ppm nitric oxide in nitrogen (Airgas Specialty Gases, Chicago, Ill.) was drawn with a 50 cubic centimeters (cc) disposable medical syringe and then transferred to a Tedlar bag through an injection port. Then the appropriate volume of nitrogen (Airgas Inc., Radur, Pa.) was delivered to the bag that was controlled by a Riteflow® flowmeter (Bel-Art Products, Pequannock, N.J.). The same technique was used to prepare carbon monoxide mixtures in nitrogen, but a 1 cc disposable medical syringe was used to dosage pure carbon monoxide (Air Products and Chemicals Inc., Parkersburg, W. Va.). To calculate the concentrations of mixed gases, the following Equation 2 was applied: Cppm=Vc/(Vc+Vd)×10^6·ppm (2) where Vc is the target gas volume and Vd is the dilutant volume.
# Once the rats were prepared with a modified gas delivery system in place, 20 cm^3 of nitrogen was purged through whole gas capsule to remove air. Then 20 cm^3 of a therapeutic gas mixture was delivered in a medical syringe to a gas vent, and the gas vent was sealed. The wounds were exposed to gas mixtures for specified period of times (15 minutes to 1 hour). The treatment was repeated four times a day, while the rat was awake and fully ambulatory. Negative control wounds remained uncovered, allowing access of air to the wound site. Positive control wounds were exposed to pure nitrogen, which served as the diluting gas for every mixture prepared. […]
# [1] = test system: diabetic type I excisional wounds; test: Type I diabetes model: excisional wound contraction after gas treatment; assay type: in vivo, rat; settings: for effect on diabetic wound contraction / wound area as % of its initial area / wound size as % of its starting point: 1000 ppm NO or 250 ppm CO, 15 minutes four times per day
# Method: Male Sprague-Dawley rats (body weight 400-450 g) were used for these studies, were kept in an animal care facility for 48 h at 21° C. in a temperature controlled room with a 12 h light/dark cycle and 30-70% air-changed humidity. Animals were allowed unlimited access to regular chow food and drinking water. Diabetes type I was induced in rats by injection of streptozotocin (STZ) (65 mg/kg in pH 4.5 citrate buffer, IP). To relieve the pain associated with the intraperitoneal streptozotocin injection, rats were first put under deep anesthesia by injecting (ketamine 50 mg/kg IM, xylazine 5 mg/kg, IM). Anesthesia levels were checked by corneal reflex and toe pinch, and sustained by additional injections of the ketamine and xylazine mixture. After 10 days of streptozotocin injections the blood glucose levels were measured to determine if the rats could be considered diabetic. If the blood glucose level was above 300 mg/dL, the rat was considered diabetic. Rats were fasted overnight before the glucose level was measured. After injecting anesthesia, the tip of the tail was sterilized by wiping it with 70% alcohol. Approximately 2 mm of the tail was cut off to withdraw a sample of blood (35 μl), and the tip was compressed for 45-60 seconds to stop the bleeding.
# The diabetic rats were then anesthetized (if needed) with a mixture of ketamine (50 mg/kg I.M.) and xylazine (5 mg/kg I.M.) administered intraperitoneally. Once anesthetized, hair was removed from the rats' backs using an electric razor and the backs of the rat were subsequently wiped with a 70% ethyl alcohol swab. On either side of the midline of the rat's back, four excision wounds were made with a sterile about 5 mm in diameter Biopsy Punch (Miltex, Inc. York, Pa. cat#33-35). The resulting wounds were approximately 4 mm deep and were deprived of epidermis, dermis and subcutaneous fat. Immediately after wounding, the gasket of an exemplary gas delivery system as disclosed herein was bonded to the skin area surrounding each treated wound by means of a thin layer of Skin-Bond® Cement (Smith & Nephew Inc. Largo, Fla. 33773).
# After the surgery and during the recovery period from anesthesia, rats were turned from side to side to avoid pulmonary edema and to ensure unobstructed breathing. The rats were transferred to cages lined with sterile drape and contained moist food. To minimize any stress associated with pain, the rats were injected subcutaneously with analgesic (Butorphanol 1-2 mg/kg) every four hours for a maximum period of 2 days. Additionally, 1-2 ml of warm sterile saline/100 g of body weight was injected subcutaneously during the recovery period to prevent dehydration. Once the rats were completely awake, they were placed in cages with free access to food and drinking water. During the postoperative care period, rats were monitored for signs of infection, or self inflicted trauma. Additionally food and water intake was monitored. The diabetic rats were subjected to treatment as described below.
# as §1, with “To calculate the concentrations of mixed gases, the following Equation 2 was applied: Cppm=Vc/(Vc+Vd)×10^6·ppm (2) where Vc is the target gas volume and Vd is the dilutant volume.” left out
# normal excisional wounds = test: Normal excisional wound: wound size after gas treatment; assay type: in vivo, rat; settings: 1000 ppm NO or 250 ppm CO, 15 minutes four times per day; for wound area shrunk to % of initial: day 3; for wound size/area as % of its starting point: day 10
# Method: (§2) Provided methods and apparatus were tested on second degree burn wounds (normal and diabetic), excisional wounds (normal and diabetic), and surgical incisional wounds (normal and diabetic) in rat models. Various treatment protocols were evaluated and dose and time dependent studies were carried out on normal excisional wounds to determine the [NO] and [ONOO^−] release profile using exogenous NO and CO.
# as §1
# Once the rats were prepared with a modified gas delivery system in place, 20 cm^3 of nitrogen was purged through whole gas capsule to remove air. Then 20 cm^3 of a therapeutic gas mixture was delivered in a medical syringe to a gas vent, and the gas vent was sealed. The wounds were exposed to gas mixtures for specified period of times (15 minutes to 1 hour). The treatment was repeated four times a day, while the rat was awake and fully ambulatory. Negative control wounds remained uncovered, allowing access of air to the wound site. Positive control wounds were exposed to pure nitrogen, which served as the diluting gas for every mixture prepared.
# After a specified time interval (1 day, 3 days, 5 days, 7 days, 10 days), rats were again anesthetized with a mixture of ketamine (50 mg/kg I.M.) and xylazine (5 mg/kg I.M.). The gas delivery system was removed by applying few drops of Uni-Solve® (Smith & Nephew Inc. Largo, Fla. 33773), which enabled the removal of the gas delivery system from the skin. Wounds were then removed using a 6 mm in diameter biopsy punch (Miltex, Inc. York, Pa. cat #33-36). Removed wounds were immediately used to measure the NO and ONOO^− release or frozen in liquid nitrogen to be later subjected to hydroxyproline analysis and western blot analysis or embedded in TBS Tissue Frizzing Medium for histological analysis. After the wounded tissue was removed, the rats were euthanized by injecting pentothal at a dose of 150 mg/kg. The rats were then placed in cold storage in an animal care facility.
# In FIG. 9, depicted are changes in wound size of a normal excisional wound after treatment with either NO or CO. The photographs were taken at 1, 3, 5, 7 and 10 days after wounding. Normal excisional wounds were treated with either 1000 ppm NO or 250 ppm of CO gas mixtures for 15 minutes four times per day with at least an hour break between treatments. A marker 305 was placed next to each excisional wound to show the size/area of the original wound. […] A very rapid drop in wound area was observed between the 5th and 7th day of healing. […] At day 10, the wound area/size had decreased to 31%+/−5% of its initial starting point. […] At day 3, the area of the NO treated wound had shrunk to 58±4.9%, and the area of gCO treated wound had shrunk to 63±5.7%, whereas the area of untreated wound decreased to 81±6.1%. By day 10 NO treated wounds were much smaller than the untreated wounds and had decreased in size/area to 15%+/−3.8% of its starting point.
# [2] = test system: burn, excisional and surgical incisional wounds; test: Wound healing time in rat wound models (burn, excisional, incisional; normal and diabetic); assay type: in vivo; settings: exogenous gas treatment
# Method: as §2
# It is believed that gasotransmitters NO, O2 and CO delivered locally to a wound site may influence the healing process via changing the NO/ONOO^− balance. […] As a result, there was a high formation of cytotoxic ONOO^−, which can contribute to wound healing impairment. Accordingly, wounds were exposed individually to either gaseous NO or CO using a modified gas delivery system surrounding an injured area. To determine the efficacy of gas therapy in restoring the NO/ONOO^− balance, treated wounds were subjected to NO and ONOO^− measurements. Also, eNOS and iNOS expression levels were determined using western blotting. Collagen formation and maturation, also wound contraction were investigated and compared to results of untreated wounds.
# rat model of wound = assay type: in vivo
# Method: In vivo efficiency of the provided gas delivery system in the process of accelerating wound healing was also tested. For these experiments, a rat model of wound was studied. Indexes of post-ischemic injury included: morphometric analysis, tissue edema, using a laser rate of wound healing process, level of collagen, and breaking strength.
# [3] = inhaled for over 30 min; cited from earlier work
# [4] = about 50-1000 ppm NO, about 50-250 ppm CO, about 100% O2
Structure (SMILES),effect on burn healing compared to untreated burn wound (2nd degree burn wounds),increase of burn wound area (2nd degree burn wounds; day 10),effect on diabetic wound contraction [1],wound area as % of its initial area ([1]; day 5) [%],wound size as % of its starting point ([1]; day 10),effect on normal excisional wound contraction (normal excisional wounds),wound area shrunk to % of initial (normal excisional wounds) [%],wound size/area as % of its starting point (normal excisional wounds),"decreased wound healing time (versus control, untreated) [2]",wound healing in a single gas treatment (rat model of wound; [4]),concentration believed to be dangerous when inhaled [3],increase of burn wound area (2nd degree burn wounds; day 3) [%],wound area as % of its initial area ([1]; day 7) [%],size difference between treated and untreated diabetic excisional wounds ([1]; day 10) [%],"wound healing in a single gas treatment (rat model of wound; rat, in vivo)"
"[C-]#[O+] [CO, carbon monoxide]",reduced swelling and accelerated burn healing process,roughly 67.1%+/−3.5,some influence on wound contraction,82.6±3.7,41.4%+/−2.8,accelerated wound contraction and resulted in a significant decrease in wound size,63±5.7,22.2%+/−3.3,at least 20%,good results,higher than 1500 ppm,–,–,–,–
"[N]=O [NO, nitric oxide]",reduced swelling and accelerated burn healing process,roughly 58.0%+/−3.1,accelerated wound contraction and stimulated wound repair,–,29.8%+/−2.5,accelerated wound contraction and resulted in a significant decrease in wound size,58±4.9,15%+/−3.8,30-50%,good results,> 500 ppm,76.3±4.2,57.8±3.1,~17,–
"O=O [O2, Oxygen]",–,–,–,–,–,–,–,–,–,–,–,–,–,–,good results
